Measurements from publication PMC7822874, “Chemoprotective antimalarials identified through quantitative high-throughput screening of Plasmodium blood and liver stage parasites” (Scientific Reports, 2021).
Like-named read-outs stand apart in the source and are kept apart here.

Columns and labels:
[1] = in vitro; conditions: human, hepg2 cells
[2] = test system: HepG2; conditions: human, hepg2 cells, 48 h
[3] = test system: Plasmodium falciparum Dd2 asexual blood stage parasites; assay: microbe, parasite or virus in culture; parameters: species or system Plasmodium falciparum Dd2 in human erythrocytes; single determination (one 11-point concentration-response curve); conditions: Plasmodium falciparum, DD2, Erythrocyte, 72 h; read-out: AC50
[4] = in vitro; conditions: human
[5] = test system: P. berghei-ANKA-GFP-LucCON liver stage parasites in HepG2-A16-CD81EGFP cells; assay: P. berghei liver stage Pb-Luc assay, Method 1 (UCSD, 1536-well); type: cell-based, Plasmodium berghei; conditions: Method 1; for Max Resp (signal direction of the dose response): Decrease = decreasing P. berghei viability with dose, Increase = increasing signal, Inactive = no dose response
[6] = HepG2-A16-CD81EGFP cells, uninfected
[7] = Plasmodium berghei, Hill fit, 50% of maximum activity response, read-out: AC50
[8] = Plasmodium berghei, log10 of molar AC50 from Hill fit, read-out: Log AC50 (converted)

Structure (SMILES) | CC50 at 48 h [1] [µM] | Log AC50 (M) [2] [M] | AC50 [3] [µM] | viability at 48 h, 1 µM [4, 6] [%] | viability at 48 h, 3 µM [4, 6] [%] | further results
CCCN(CCC)CCNC(=O)c1cc2c(-c3ccc(Cl)cc3)nn(C)c2s1 [NCGC00108997-01] | 43.2 | -4.3643 | 0.596 | 102 | 98 | 
COc1cc2nc(Nc3ccc(C)c(C)c3)nc(N)c2cc1OC [NCGC00107261-01] | 43.2 | -4.3643 | 0.75 | 107 | 97 | 
CC1(C)N=C(N)N=C(N)N1c1ccc(OCCCOc2ccccc2)c(Cl)c1 [MLS000738223-01] | 7.69 | -5.1143 | 2.99 | 39 | 32 | 
CCn1c(/C=C/c2cc(Br)ccc2O)nc2ccccc2c1=O [MLS001205008-01] | 13.7 | -4.8643 | 4.22 | 104 | 101 | 
c1ccc2cc3c(NCCN4CCOCC4)ccnc3cc2c1 [MLS000702892-01] | 43.2 | -4.3643 | 1.68 | 89 | 92 | 
CCOC(=O)c1sc(NC(=O)CNCc2ccccn2)c(C(=O)OCC)c1C [MLS001005083-01] | 43.2 | -4.3643 |  | 101 | 96 | 
C/C(=N\NC(=O)c1cccc(Br)c1)c1ccccn1 [MLS001232242-01] | 1.37 | -5.8643 | 4.73 |  |  | Max Resp (signal direction of the dose response) [5]: Decrease; AC50 ([5]; Hill fit, 50% of maximum activity response, read-out: AC50): 0.891 µM; Log AC50 (M) ([5]; log10 of molar AC50 from Hill fit): -6.050 M; AC50 [5, 7]: 0.794 µM; AC50 [5, 8]: 0.794 µM
CCOc1ccc(Nc2nc(NCC3CCCO3)c3ccccc3n2)cc1 (centres unmarked) [MLS000724397-01] | 43.2 | -4.3643 | 1.88 | 104 | 83 | 
CCc1ccc(Nc2cc(=O)n(C3CCCCC3)c(=O)[nH]2)cc1 [MLS000094379-01] | 43.2 | -4.3643 |  |  |  | viability at 66 h [4, 6]: 104%
c1ccc(-c2nc(N3CCCCCC3)c3ccccc3n2)nc1 [MLS000042263-01] | 2.73 | -5.5643 | 1.68 | 102 | 88 | 
Cc1c2ccncc2c(C)c2c1[nH]c1ccccc12 [MLS001076505-01] | 43.2 | -4.3643 | 3.35 |  |  | viability [4]: 102%
CN1CCC(NCCC(c2ccc(F)cc2)c2ccc(Cl)cc2)CC1 (centres unmarked) [MLS001215866-01] | 34.3 | -4.4643 | 4.22 |  |  | viability at 66 h [4, 6]: 98.6%
OC(c1cc(-c2ccc(C(F)(F)F)cc2)nc(C(F)(F)F)c1)C1CCCCN1 (centres unmarked) [MLS000757046-01] | 43.2 | -4.3643 | 0.15 | 109 | 105 | 
Cc1nc2c(=O)n(C)c(=O)nc-2n(C)n1 [MLS000528498-01] | 0.862 | -6.0643 | 0.422 |  |  | Max Resp (signal direction of the dose response) [5]: Decrease; AC50 [5, 7]: 0.056 µM; AC50 [5, 8]: 0.0562 µM
Cc1cccc(Oc2nc(-c3ccccn3)nc3ccccc23)c1 [MLS000769548-01] | 12.2 | -4.9143 | 7.5 | 106 |  | viability at 48 h [4, 6]: 106%
Cc1cnc(C(=O)Nc2cccc3cccnc23)cn1 [MLS000033120-01] | 0.611 | -6.2143 | 2.66 |  |  | viability at 66 h [4, 6]: 105%
CCN1CCN(Cc2ccc(NC(=O)c3ccc(C)c(NC(=O)c4cnc5cc(C(F)(F)F)ccc5c4O)c3)cc2C(F)(F)F)CC1 [MLS000911561-01] | 34.3 | -4.4643 | 0.531 | 107 | 104 | 
O=C(Nc1nc(-c2ccccn2)cs1)Nc1ccc(F)cc1F [MLS001175659-01] | 17.2 | -4.7643 | 5.31 | 94 | 79 | 
CCc1ccc([S+](=O)([O-])c2nnn3c2nc(Nc2ccc(F)cc2)c2cc(Cl)ccc23)cc1 [NCGC00112284-01] | 34.3 | -4.4643 | 2.11 |  |  | viability at 66 h [4, 6]: 105%
CCN(CC)CCn1c(=N)n(CC(=O)c2ccc(Br)s2)c2ccccc21 [MLS001045932-01] | 30.6 | -4.5143 | 5.31 | 91 | 91 | 
CC(=O)Nc1ccc(NC2=Nc3ccccc3N3C2=Nc2c(c(C)nn2-c2ccccc2)C3c2ccccc2)cc1 (centres unmarked) [MLS000555438-01] | 48.5 | -4.3143 | 6.68 |  |  | viability at 66 h [4, 6]: 95.3%

Structure (SMILES) | CC50 at 48 h [1] [µM] | Log AC50 (M) [2] [M] | AC50 [3] [µM] | viability at 48 h, 1 µM [4, 6] [%] | viability at 48 h, 3 µM [4, 6] [%] | further results
CN(C)CC(CCC(CN(C)C)C(O)(c1ccccc1)c1ccccc1)C(O)(c1ccccc1)c1ccccc1 (centres unmarked) [MLS001173677-01] | 34.3 | -4.4643 | 2.11 | 101 | 98 | 
N=c1ccn(Cc2ccc(Cl)cc2)cc1 [MLS000080110-01] | 34.3 | -4.4643 | 8.41 |  |  | viability at 66 h [4, 6]: 101%
O=C(NC(c1ccc(Cl)cc1)c1cc(Cl)c2cccnc2c1O)c1cccnc1 (centres unmarked) [MLS000573463-01] | 43.2 | -4.3643 | 5.96 | 84 | 68 | 
COc1ccc(/C=N/Nc2cc(C)nc3ccccc23)cc1 [MLS001210939-01] | 30.6 | -4.5143 | 2.11 | 92 | 87 | 
c1ccc(-[n+]2nc(Nc3cccc4ccccc34)sc2-c2c3ccccc3cc3ccccc23)cc1 [MLS000949879-01] | 43.2 | -4.3643 | 5.96 |  |  | viability at 66 h [4, 6]: 95.1%
CCN1CC=C(c2c[nH]c3ccccc23)CC1 [MLS000093713-01] | 24.3 | -4.6143 | 4.22 |  |  | viability at 66 h [4]: 103%
CC(C)(C)CC(C)(C)c1ccc(O)c(Cc2ccc(Cl)cc2Cl)c1 [NCGC00095016-01] | 21.7 | -4.6643 | 1.68 |  |  | 
CC1=C[C@@H](CNCc2cccnc2)[C@H](C(C)C)C[C@H]1Cc1nnc(-c2ccc(N(C)C)cc2)o1 [NCGC00421481-01] | 34.3 | -4.4643 | 5.31 |  |  | 
COc1ccc(/C=N/Nc2nc(Nc3ccccc3)nc(N3CCCC3)n2)cc1[N+](=O)[O-] [MLS000723644-01] | 27.3 | -4.5643 | 6.68 |  |  | 
CC(C)(C)c1ccc(-c2cc(C[C@H]3CNCC[C@H]3CC(=O)N3CCN(c4ccccn4)CC3)no2)cc1 [NCGC00400637-01] | 38.5 | -4.4143 | 15 |  |  | 
Cc1nc(-c2ccccc2)cc([C@H]2CN3CC[C@H]2C[C@@H]3CN(Cc2ccco2)Cc2ccco2)n1 [NCGC00392555-01] | 30.6 | -4.5143 | 2.99 |  |  | 
Oc1cccc(C(Nc2nccs2)c2ccc3cccnc3c2O)c1 (centres unmarked) [MLS000760926-01] | 38.5 | -4.4143 | 7.5 |  |  | 
O=C(Nc1ccc(C(F)(F)F)cc1)N1CCN(c2ccnc3cc(Cl)ccc23)CC1 [MLS000830170-01] | 24.3 | -4.6143 | 5.31 |  |  | 
COc1cc2c(cc1OCc1ccccc1)N(C(=O)c1cc3ccccc3n1C)CC21CCN(C)CC1 [NCGC00419848-01] | 43.2 | -4.3643 | 2.11 |  |  | 
CCOc1ccc(C2=C(C(C)=O)Sc3nnc(C)n3N2C(C)=O)cc1 [NCGC00137200-01] | 43.2 | -4.3643 | 5.31 |  |  | 
O=C(Nc1ccc([C@H]2OCC(=O)N(Cc3ccncc3)[C@@H]2CO)cc1)c1ccc(C(F)(F)F)cc1 [NCGC00395114-01] | 27.3 | -4.5643 | 16.8 |  |  | 
CCCCN(C)CCCNC(=O)Cn1ncc2c3ccccc3n(Cc3cc(C)ccc3C)c2c1=O [NCGC00114267-01] | 34.3 | -4.4643 | 0.75 |  |  | 
Cc1cccc(CN2CCCC(O)(CNCc3ncccc3C)C2=O)c1 (centres unmarked) [NCGC00429062-01] | 38.5 | -4.4143 | 16.8 |  |  | 
CCN(CC)CCOC(=O)c1ccc(NC(=O)c2cc3c(=O)n(CC)c4ccccc4c3s2)cc1 [NCGC00110417-01] | 48.5 | -4.3143 | 2.66 |  |  | 
CC(C)c1nc(-c2ccc(OC3CCN(C(=O)CCc4nc5ccccc5[nH]4)C3)cc2)no1 (centres unmarked) [NCGC00441007-01] | 27.3 | -4.5643 | 15 |  |  | 
CCOc1ccc2nc(C)cc(Nc3ccc4c(c3)OCCO4)c2c1 [MLS000575119-01] | 38.5 | -4.4143 | 6.68 |  |  | 
